Measurements as given in PubChem BioAssay (NCI).
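Interpolation was linear, between the two tested concentrations surrounding the appropriate level; five concentrations were tested over 48 hours in 96-well plates. GI50 marks 50% less growth. TGI denotes the concentration required for complete inhibition of growth.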

Key:
Test in all cases: DTP human tumour cell line panel, 48 h
[1] = tested on: NCI-H522 lung
[2] = tested on: UACC-62 melanoma
[3] = tested on: SNB-75 CNS
[4] = tested on: SN12C renal
[5] = tested on: HL-60(TB) leukemia
[6] = tested on: RXF 393 renal
[7] = tested on: IGROV1 ovarian
[8] = tested on: OVCAR-4 ovarian
[9] = tested on: SF-539 CNS
[10] = tested on: NCI/ADR-RES ovarian
[11] = tested on: ACHN renal
[12] = tested on: DU-145 prostate
[13] = tested on: CAKI-1 renal
[14] = tested on: SK-MEL-2 melanoma
[15] = tested on: 786-0 renal
[16] = tested on: HT29 colon
[17] = tested on: SF-268 CNS
[18] = tested on: MALME-3M melanoma
[19] = tested on: MDA-MB-231 breast
[20] = tested on: SW-620 colon
[21] = tested on: RPMI-8226 leukemia
[22] = tested on: HOP-92 NSCLC
[23] = tested on: COLO 205 colon
[24] = tested on: SR leukemia
[25] = tested on: UO-31 renal
[26] = tested on: NCI-H23 lung
[27] = tested on: SK-MEL-28 melanoma

Work on CC1(C)CC[C@]23CC[C@]4(C)[C@H](CC[C@@H]5[C@@]6(C)CCCN(CO)C(C)(C)[C@@H]6CC[C@]54C)[C@H]2[C@H]1OC3 yielded a GI50 [1] of 15.9 µM, a TGI [1] of 31.7 µM and a GI50 [2] of 4.83 µM. It also gave a TGI [2] of 17.8 µM, a GI50 [3] of 5.02 µM and a TGI [3] of 19.6 µM. It also gave a GI50 [4] of 4.89 µM, a TGI [4] of 18.6 µM and a GI50 [5] of 2.01 µM. It also gave a TGI [5] of 5.07 µM, a GI50 [6] of 3.27 µM and a TGI [6] of 18 µM. For the same compound, the GI50 [7] was 1.91 µM, the TGI [7] was 4 µM and the GI50 [8] was 3.42 µM. The TGI [8] was 13.4 µM, the GI50 [9] was 2.15 µM and the TGI [9] was 4.95 µM. It also gave a GI50 [10] of 2.02 µM, a TGI [10] of 4.6 µM and a GI50 [11] of 1.87 µM. It also gave a TGI [11] of 3.6 µM, a GI50 [12] of 3 µM and a TGI [12] of 8.95 µM. For the same compound, the GI50 [13] was 1.54 µM, the TGI [13] was 3.3 µM and the GI50 [14] was 2.5 µM. For the same compound, the TGI [14] was 7.68 µM, the GI50 [15] was 1.84 µM and the TGI [15] was 3.4 µM. For the same compound, the GI50 [16] was 1.86 µM, the TGI [16] was 3.86 µM and the GI50 [17] was 6.61 µM. It also gave a TGI [17] of 22.8 µM, a GI50 [18] of 2.64 µM and a TGI [18] of 8.69 µM. It also gave a GI50 [19] of 1.96 µM, a TGI [19] of 4.5 µM and a GI50 [20] of 1.68 µM. For the same compound, the TGI [20] was 3.24 µM, the GI50 [21] was 2.88 µM and the TGI [21] was > 100 µM. It also gave a GI50 [22] of 1.68 µM, a TGI [22] of 4.75 µM and a GI50 [23] of 1.7 µM. For the same compound, the TGI [23] was 3.35 µM, the GI50 [24] was 1.87 µM and the TGI [24] was 13.1 µM. It also gave a GI50 [25] of 9.62 µM, a TGI [25] of 23.6 µM and a GI50 [26] of 2.19 µM. The TGI [26] was 5.75 µM, the GI50 [27] was 1.97 µM and the TGI [27] was 3.78 µM.
